In general, inhibition refers to the change of the read-out against control, counted positive when it falls.

The assay has as its target T1, mIDH1 R132H (Homo sapiens, UniProt O75874, R132H).
T1 construct: expressed in transfected cells; host or cells: U87MG
Nature of the assay: Detection of 2-HG in supernatant of U87-IDH1 R132H cells. The assay is classed as cell-based. Particulars: U-87 MG, 72 h, U87MG cells overexpressing mIDH1 R132H, LC-MS-MS; for inhibition at 0.001 µM: 1 nM compound, read-out: Inhibition rate on 2-HG in the supernatant of U87-IDH R132H cells, 1 nM; for inhibition at 0.01 µM: 10 nM compound, read-out: Inhibition rate on 2-HG in the supernatant of U87-IDH R132H cells, 10 nM; for inhibition at 0.1 µM: 100 nM compound, read-out: Inhibition rate on 2-HG in the supernatant of U87-IDH R132H cells, 100 nM. The method, then: U87MG cells overexpressing the mIDH1 R132H mutation or HT1080 cells carrying IDH1 R132C were seeded in a 48-well plate and a 96-well plate at 50,000 cells/well and 10,000 cells/well, respectively. After the cells were incubated overnight for adhesion, the supernatants were removed. The cell culture media containing serially diluted compounds were added, and the cells were incubated for 72 h. After 72 h, the culture media were collected and diluted 10-fold and 20-fold with water, respectively. Acetonitrile was added to extract the metabolites. The 2-HG content in the culture media was analyzed by LC-MS-MS. The percentage inhibition and IC50 of the compounds on 2-HG in the supernatant were calculated as compared with the control group.

T1 sequence (O75874 whole entry R132H): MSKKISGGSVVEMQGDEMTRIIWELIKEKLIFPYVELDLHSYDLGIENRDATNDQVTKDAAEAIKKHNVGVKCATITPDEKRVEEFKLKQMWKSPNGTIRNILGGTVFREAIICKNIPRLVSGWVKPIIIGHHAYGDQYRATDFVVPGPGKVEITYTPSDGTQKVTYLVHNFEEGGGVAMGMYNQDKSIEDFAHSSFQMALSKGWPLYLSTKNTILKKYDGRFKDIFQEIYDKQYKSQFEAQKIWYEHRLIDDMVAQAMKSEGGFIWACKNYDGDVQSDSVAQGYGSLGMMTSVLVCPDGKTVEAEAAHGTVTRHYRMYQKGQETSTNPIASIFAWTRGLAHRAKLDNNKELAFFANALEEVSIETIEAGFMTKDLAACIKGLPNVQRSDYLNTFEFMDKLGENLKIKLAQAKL

Turning to `C=CC(=O)N1CCN(C(CC)(CC)c2ccc([C@H](C)Nc3ncc4[nH]c(=O)n(CC)c4n3)cc2)CC1` [Compound 14], the inhibition at 0.001 µM was 30 to 60%, the inhibition at 0.01 µM was > 90% and the inhibition at 0.1 µM was > 90%.

Take `C=CC(=O)N1CCN(C(CC(C)C)c2ccc([C@H](C)Nc3ncc4[nH]c(=O)n(C5CC5)c4n3)cc2)CC1` (stereo partly drawn) [Compound 30]: the inhibition at 0.001 µM is 30 to 60%, the inhibition at 0.01 µM is > 90% and the inhibition at 0.1 µM was > 90%.

As to `C=CC(=O)N1CCN(C(CC2CC2)c2ccc([C@H](C)Nc3ncc4[nH]c(=O)n(C)c4n3)cc2)CC1` (stereo partly drawn) [Compound 2], the inhibition at 0.001 µM was 30 to 60%, the inhibition at 0.01 µM was in the range of 60 to 90% and the inhibition at 0.1 µM is > 90%.

On to `C=CC(=O)N1CCN(C(CC23CC(C2)C3)c2ccc([C@H](C)Nc3ncc4[nH]c(=O)n(C5CCC5)c4n3)cc2)CC1` (stereo partly drawn) [Compound 35], for which the inhibition at 0.001 µM was in the range of 30 to 60%, the inhibition at 0.01 µM was > 90% and the inhibition at 0.1 µM is > 90%.

Consider `C=CC(=O)N1CCN(C(CC2CC2)c2ccc([C@H](C)Nc3ncc4[nH]c(=O)n(C5CCC5)c4n3)cc2)CC1` (stereo partly drawn) [Compound 5], for which the inhibition at 0.001 µM is 30 to 60%, the inhibition at 0.01 µM is > 90% and the inhibition at 0.1 µM was > 90%.

As to `C=CC(=O)N1CCN(C(CC23CC(C2)C3)c2ccc([C@H](C)Nc3ncc4[nH]c(=O)n(C5CC5)c4n3)cc2)CC1` (stereo partly drawn) [Compound 34], the inhibition at 0.001 µM was in the range of 60 to 90%, the inhibition at 0.01 µM was > 90% and the inhibition at 0.1 µM is > 90%.

As for `C=CC(=O)N1CCN(C(CC2CC2)c2ccc([C@H](C)Nc3ncc4c(n3)n(C(C)C)c(=O)n4C)cc2)CC1` (stereo partly drawn) [Compound 38], the inhibition at 0.001 µM is < 30%, the inhibition at 0.01 µM was 60 to 90% and the inhibition at 0.1 µM fell in the range of 60 to 90%.

On to `C=CC(=O)N1CC(N(C)C(CC2CC2)c2ccc([C@H](C)Nc3ncc4[nH]c(=O)n(CC)c4n3)cc2)C1` (stereo partly drawn) [Compound 24], for which the inhibition at 0.001 µM lay within 30 to 60%, the inhibition at 0.01 µM fell in the range of 60 to 90% and the inhibition at 0.1 µM is > 90%.

Take `C=CC(=O)NC1CN(C(CC2CC2)c2ccc([C@H](C)Nc3ncc4[nH]c(=O)n(CC)c4n3)cc2)C1` (stereo partly drawn) [Compound 25]: the inhibition at 0.001 µM lay within 60 to 90%, the inhibition at 0.01 µM is 60 to 90% and the inhibition at 0.1 µM is > 90%.

Take `C=CC(=O)N1CCN(C(CC2CC2)c2ccc([C@H](C)Nc3ncc4[nH]c(=O)n(C5CC5)c4n3)cc2)CC1` (stereo partly drawn) [Compound 4]: the inhibition at 0.001 µM is 30 to 60%, the inhibition at 0.01 µM was > 90% and the inhibition at 0.1 µM was > 90%.

Regarding `C=CC(=O)N1CCN(C(CC(C)C)c2ccc([C@H](C)Nc3ncc4[nH]c(=O)n(C(C)C)c4n3)cc2)CC1` (stereo partly drawn) [Compound 29], the inhibition at 0.001 µM lay in the range of 60 to 90%, the inhibition at 0.01 µM is > 90% and the inhibition at 0.1 µM is > 90%.

On to `C=CC(=O)N1CCN(C2(c3ccc([C@H](C)Nc4ncc5[nH]c(=O)n(CC)c5n4)cc3)CCC(F)(F)CC2)CC1` [Compound 17], for which the inhibition at 0.001 µM lay within 30 to 60%, the inhibition at 0.01 µM fell in the range of 60 to 90% and the inhibition at 0.1 µM is > 90%.

For `C=CC(=O)N1CC2(CCN(C(CC3CC3)c3ccc([C@H](C)Nc4ncc5[nH]c(=O)n(CC)c5n4)cc3)CC2)C1` (stereo partly drawn) [Compound 22], the inhibition at 0.001 µM was 60 to 90%, the inhibition at 0.01 µM fell in the range of 60 to 90% and the inhibition at 0.1 µM is > 90%.

As for `C=CC(=O)N1CCN(C(CC2CC2)c2ccc(C3(Nc4ncc5[nH]c(=O)n(CC)c5n4)CC3)cc2)CC1` (stereo not drawn) [Compound 39], the inhibition at 0.001 µM is < 30%, the inhibition at 0.01 µM lay in the range of 60 to 90% and the inhibition at 0.1 µM is > 90%.

On to `N#Cc1ccnc(N2C(=O)CC[C@H]2C(=O)N(c2cncc(F)c2)[C@H](C(=O)NC2CC(F)(F)C2)c2ccccc2Cl)c1` [Ivosidenib, ivosidenib, reference compound], for which the inhibition at 0.001 µM is < 30%, the inhibition at 0.01 µM was < 30% and the inhibition at 0.1 µM was 60 to 90%.

Regarding `C=CC(=O)N1CC2(CCN(C(CC3CC3)c3ccc([C@H](C)Nc4ncc5[nH]c(=O)n(CC)c5n4)cc3)C2)C1` (stereo partly drawn) [Compound 21], the inhibition at 0.001 µM is 30 to 60%, the inhibition at 0.01 µM was 60 to 90% and the inhibition at 0.1 µM was > 90%.

For `C=CC(=O)N1CCC(N(C)C(CC2CC2)c2ccc([C@H](C)Nc3ncc4[nH]c(=O)n(CC)c4n3)cc2)CC1` (stereo partly drawn) [Compound 23], the inhibition at 0.001 µM was in the range of 30 to 60%, the inhibition at 0.01 µM was 60 to 90% and the inhibition at 0.1 µM is > 90%.

As to `C=CC(=O)N1CC2(C1)CN(C(CC1CC1)c1ccc([C@H](C)Nc3ncc4[nH]c(=O)n(CC)c4n3)cc1)C2` (stereo partly drawn) [Compound 18], the inhibition at 0.001 µM is 30 to 60%, the inhibition at 0.01 µM was > 90% and the inhibition at 0.1 µM is > 90%.

For the compound `C=CC(=O)N1CCN(C(CC2CC2)c2ccc([C@H](C)Nc3ncc4c(n3)n(CC)c(=O)n4C)cc2)CC1` (stereo partly drawn) [Compound 37], the inhibition at 0.001 µM was < 30%, the inhibition at 0.01 µM was in the range of 60 to 90% and the inhibition at 0.1 µM lay within 60 to 90%.

As for `C=CC(=O)N1CCN(C2(c3ccc([C@H](C)Nc4ncc5[nH]c(=O)n(CC)c5n4)cc3)CCCCC2)CC1` [Compound 16], the inhibition at 0.001 µM lay within 30 to 60%, the inhibition at 0.01 µM was in the range of 60 to 90% and the inhibition at 0.1 µM is > 90%.

Consider `C=CC(=O)N(C)C1CCN(C(CC2CC2)c2ccc([C@H](C)Nc3ncc4[nH]c(=O)n(CC)c4n3)cc2)CC1` (stereo partly drawn) [Compound 28], for which the inhibition at 0.001 µM is 30 to 60%, the inhibition at 0.01 µM fell in the range of 60 to 90% and the inhibition at 0.1 µM was > 90%.

Consider `C=CC(=O)N1CCN(C(CC23CC(C2)C3)c2ccc([C@H](C)Nc3ncc4[nH]c(=O)n(CC)c4n3)cc2)CC1` (stereo partly drawn) [Compound 12], for which the inhibition at 0.001 µM lay within 30 to 60%, the inhibition at 0.01 µM was > 90% and the inhibition at 0.1 µM was > 90%.

On to `C=CC(=O)N1CCN(C(CC2CCC2)c2ccc([C@H](C)Nc3ncc4[nH]c(=O)n(CC)c4n3)cc2)CC1` (stereo partly drawn) [Compound 10], for which the inhibition at 0.001 µM lay in the range of 30 to 60%, the inhibition at 0.01 µM was in the range of 60 to 90% and the inhibition at 0.1 µM is > 90%.

Take `C=CC(=O)N1CCN(C(CC(C)C)c2ccc([C@H](C)Nc3ncc4[nH]c(=O)n(C5CCC5)c4n3)cc2)CC1` (stereo partly drawn) [Compound 31]: the inhibition at 0.001 µM was 30 to 60%, the inhibition at 0.01 µM is > 90% and the inhibition at 0.1 µM was > 90%.

On to `C=CC(=O)N1CCN(C(CC2CC2)c2ccc([C@H](C)Nc3ncc4[nH]c(=O)n(C5CCCC5)c4n3)cc2)CC1` (stereo partly drawn) [Compound 6], for which the inhibition at 0.001 µM was < 30%, the inhibition at 0.01 µM was in the range of 60 to 90% and the inhibition at 0.1 µM is > 90%.

Regarding `C=CC(=O)N1CCN(C(CC23CC(C2)C3)c2ccc([C@H](C)Nc3ncc4[nH]c(=O)n(C5CCCC5)c4n3)cc2)CC1` (stereo partly drawn) [Compound 36], the inhibition at 0.001 µM fell in the range of 30 to 60%, the inhibition at 0.01 µM was > 90% and the inhibition at 0.1 µM is > 90%.

On to `C=CC(=O)N1CCN(C(CC2CC2)c2ccc(C3(Nc4ncc5[nH]c(=O)n(C(C)C)c5n4)CC3)cc2)CC1` (stereo not drawn) [Compound 40], for which the inhibition at 0.001 µM is < 30%, the inhibition at 0.01 µM lay within 60 to 90% and the inhibition at 0.1 µM is > 90%.

For `C=CC(=O)N1CCN(C(CC)c2ccc([C@H](C)Nc3ncc4[nH]c(=O)n(CC)c4n3)cc2)CC1` (stereo partly drawn) [Compound 7], the inhibition at 0.001 µM fell in the range of 30 to 60%, the inhibition at 0.01 µM fell in the range of 60 to 90% and the inhibition at 0.1 µM is > 90%.

Turning to `C=CC(=O)N1CCN(C(CC2(C)CC2)c2ccc([C@H](C)Nc3ncc4[nH]c(=O)n(CC)c4n3)cc2)CC1` (stereo partly drawn) [Compound 13], the inhibition at 0.001 µM lay in the range of 30 to 60%, the inhibition at 0.01 µM fell in the range of 60 to 90% and the inhibition at 0.1 µM was > 90%.

Consider `C=CC(=O)N1CCN(C(CC(C)C)c2ccc([C@H](C)Nc3ncc4[nH]c(=O)n(CC)c4n3)cc2)CC1` (stereo partly drawn) [Compound 8], for which the inhibition at 0.001 µM was 30 to 60%, the inhibition at 0.01 µM is > 90% and the inhibition at 0.1 µM was > 90%.

Take `C=CC(=O)N1CCN(C(CC(C)C)c2ccc([C@H](C)Nc3ncc4[nH]c(=O)n(C5CCCC5)c4n3)cc2)CC1` (stereo partly drawn) [Compound 32]: the inhibition at 0.001 µM lay within 30 to 60%, the inhibition at 0.01 µM was > 90% and the inhibition at 0.1 µM is > 90%.

In the case of `C=CC(=O)N1CCC2(C1)CN(C(CC1CC1)c1ccc([C@H](C)Nc3ncc4[nH]c(=O)n(CC)c4n3)cc1)C2` (stereo partly drawn) [Compound 19], the inhibition at 0.001 µM lay in the range of 30 to 60%, the inhibition at 0.01 µM is 60 to 90% and the inhibition at 0.1 µM was > 90%.

In the case of `C=CC(=O)N1CCN(C(CC(C)(C)C)c2ccc([C@H](C)Nc3ncc4[nH]c(=O)n(CC)c4n3)cc2)CC1` (stereo partly drawn) [Compound 11], the inhibition at 0.001 µM lay within 30 to 60%, the inhibition at 0.01 µM lay in the range of 60 to 90% and the inhibition at 0.1 µM was > 90%.

As for `C=CC(=O)N(C)C1CN(C(CC2CC2)c2ccc([C@H](C)Nc3ncc4[nH]c(=O)n(CC)c4n3)cc2)C1` (stereo partly drawn) [Compound 27], the inhibition at 0.001 µM is < 30%, the inhibition at 0.01 µM was in the range of 60 to 90% and the inhibition at 0.1 µM was > 90%.

(Values after patent publication US20240208978A1, “IDH MUTANT INHIBITOR AND USE THEREOF” (WIGEN BIOMEDICINE TECHNOLOGY (SHANGHAI) CO., LTD., priority 2021, published 2024).)
